# Experimental data from PubChem BioAssay (NCI).
# Several values for one entry are separate records, joined by “and”; a condition that tells them apart may be missing. Equal values may be shown once.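 Briefly, cells in 96-well plates were exposed to five compound concentrations for 48 h, and endpoints were estimated by linear interpolation. The concentration for 50% growth inhibition is given as GI50. TGI: concentration producing complete growth inhibition.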
# Tests used:
# Assay in all cases: growth of human tumour cells (NCI), 48 h
# [1] = system: A498 renal
# [2] = system: A549 NSCLC
# [3] = system: ACHN renal
# [4] = system: BT-549 breast
# [5] = system: CAKI-1 renal
# [6] = system: CCRF-CEM leukemia
# [7] = system: COLO 205 colon
# [8] = system: DU-145 prostate
# [9] = system: EKVX NSCLC
# [10] = system: HCT-116 colon
# [11] = system: HCT-15 colon
# [12] = system: HL-60(TB) leukemia
# [13] = system: HT29 colon
# [14] = system: IGROV1 ovarian
# [15] = system: K-562 leukemia
# [16] = system: KM12 colon
# [17] = system: LOX IMVI melanoma
# [18] = system: M14 melanoma
# [19] = system: MALME-3M melanoma
# [20] = system: MCF7 breast
# [21] = system: MDA-MB-231 breast
# [22] = system: MDA-MB-435
# [23] = system: MDA-N
# [24] = system: MOLT-4 leukemia
# [25] = system: NCI-H226 lung
# [26] = system: NCI-H23 lung
# [27] = system: NCI-H460 lung
# [28] = system: NCI-H522 lung
# [29] = system: NCI/ADR-RES ovarian
# [30] = system: OVCAR-3 ovarian
# [31] = system: OVCAR-4 ovarian
# [32] = system: OVCAR-5 ovarian
# [33] = system: OVCAR-8 ovarian
# [34] = system: PC-3 prostate
# [35] = system: RPMI-8226 leukemia
# [36] = system: RXF 393 renal
# [37] = system: SF-268 CNS
# [38] = system: SF-295 CNS
# [39] = system: SF-539 CNS
# [40] = system: SK-MEL-2 melanoma
# [41] = system: SK-MEL-28 melanoma
# [42] = system: SK-MEL-5 melanoma
# [43] = system: SK-OV-3 ovarian
# [44] = system: SN12C renal
# [45] = system: SNB-19 CNS
# [46] = system: SNB-75 CNS
# [47] = system: SR leukemia
# [48] = system: SW-620 colon
# [49] = system: TK-10 renal
# [50] = system: U251 CNS
# [51] = system: UACC-257 melanoma
# [52] = system: UACC-62 melanoma
# [53] = system: UO-31 renal
# [54] = system: 786-0 renal
# [55] = system: HOP-62 NSCLC
# [56] = system: HOP-92 NSCLC
# [57] = system: T-47D breast
# [58] = system: HCC-2998 colon
# [59] = system: HS 578T breast
smiles,measurement,setting,value
Cc1cccc2sc(-c3ccc(O)cc3)nc12,TGI,[1],20.4 µM
same,TGI,[2],34.8 µM
same,TGI,[3],33 µM
same,TGI,[4],25.2 µM
same,TGI,[5],30.5 µM
same,TGI,[6],49.6 µM
same,TGI,[7],28.1 µM
same,TGI,[8],31.6 µM
same,TGI,[9],16.8 µM
same,TGI,[10],28.9 µM
same,TGI,[11],26 µM
same,TGI,[12],40.8 µM
same,TGI,[13],28.7 µM
same,TGI,[14],29.2 µM
same,TGI,[15],> 100 µM
same,TGI,[16],31.6 µM
same,TGI,[17],49.6 µM
same,TGI,[18],28.5 µM
same,TGI,[19],32.8 µM
same,TGI,[20],26.9 µM
same,TGI,[21],38.7 µM
same,TGI,[22],26.8 µM
same,TGI,[23],19.4 µM
same,TGI,[24],> 100 µM
same,TGI,[25],34.6 µM
same,TGI,[26],31.9 µM
same,TGI,[27],33.3 µM
same,TGI,[28],31.7 µM
same,TGI,[29],38.9 µM
same,TGI,[30],29.8 µM
same,TGI,[31],29.5 µM
same,TGI,[32],30.2 µM
same,TGI,[33],31.8 µM
same,TGI,[34],31.7 µM
same,TGI,[35],44.2 µM
same,TGI,[36],32.1 µM
same,TGI,[37],31.9 µM
same,TGI,[38],29.1 µM
same,TGI,[39],37.8 µM
same,TGI,[40],33.7 µM
same,TGI,[41],33.4 µM
same,TGI,[42],20.6 µM
same,TGI,[43],35.4 µM
same,TGI,[44],34.3 µM
same,TGI,[45],31.8 µM
same,TGI,[46],26.2 µM
same,TGI,[47],47.3 µM
same,TGI,[48],23.7 µM
same,TGI,[49],42.1 µM
same,TGI,[50],39.1 µM
same,TGI,[51],33.1 µM
same,TGI,[52],30.1 µM
same,TGI,[53],26.4 µM
O=C(c1ccccc1)N1CCC(CC2(c3cc4ccccc4[nH]3)OCCO2)CC1,TGI,[54],34.7 µM
same,TGI,[1],62.8 µM
same,TGI,[2],> 100 µM
same,TGI,[3],> 100 µM
same,TGI,[4],> 100 µM
same,TGI,[5],> 100 µM
same,TGI,[6],> 100 µM
same,TGI,[7],40.1 µM
same,TGI,[8],> 100 µM
same,TGI,[9],> 100 µM
same,TGI,[10],> 100 µM
same,TGI,[11],> 100 µM
same,TGI,[55],> 100 µM
same,TGI,[56],93 µM
same,TGI,[13],85.9 µM
same,TGI,[14],> 100 µM
same,TGI,[15],37.6 µM
same,TGI,[16],> 100 µM
same,TGI,[17],35.6 µM
same,TGI,[18],39.6 µM
same,TGI,[20],43.9 µM
same,TGI,[21],> 100 µM
same,TGI,[22],51 µM
same,TGI,[23],87.5 µM
same,TGI,[24],58.1 µM
same,TGI,[25],> 100 µM
same,TGI,[26],> 100 µM
same,TGI,[27],> 100 µM
same,TGI,[29],> 100 µM
same,TGI,[30],> 100 µM
same,TGI,[31],> 100 µM
same,TGI,[32],> 100 µM
same,TGI,[33],> 100 µM
same,TGI,[34],> 100 µM
same,TGI,[35],6.36 µM
same,TGI,[36],> 100 µM
same,TGI,[37],> 100 µM
same,TGI,[38],> 100 µM
same,TGI,[39],> 100 µM
same,TGI,[40],73.6 µM
same,TGI,[41],37.4 µM
same,TGI,[42],42.3 µM
same,TGI,[43],> 100 µM
same,TGI,[44],> 100 µM
same,TGI,[45],> 100 µM
same,TGI,[46],> 100 µM
same,TGI,[47],> 100 µM
same,TGI,[48],> 100 µM
same,TGI,[57],> 100 µM
same,TGI,[49],> 100 µM
same,TGI,[50],> 100 µM
same,TGI,[51],51.9 µM
same,TGI,[52],39.4 µM
same,TGI,[53],> 100 µM
O=[N+]([O-])c1cc([N+](=O)[O-])c(Nn2c3ccccc3c3ccccc32)c([N+](=O)[O-])c1,GI50,[54],0.324 µM
same,TGI,[54],13.1 µM and 15.9 µM
same,GI50,[1],0.228 µM
same,TGI,[1],0.624 µM
same,GI50,[2],0.334 µM
same,TGI,[2],14.3 µM and > 100 µM
same,TGI,[3],8.49 µM
same,GI50,[4],0.278 µM
same,TGI,[4],7.32 µM and 1.23 µM
same,GI50,[5],0.238 µM
same,TGI,[5],0.703 µM
same,GI50,[6],0.355 µM
same,TGI,[6],> 100 µM
same,GI50,[7],0.195 µM
same,GI50,[8],0.442 µM
same,TGI,[8],20.1 µM and 18.7 µM
same,GI50,[9],0.328 µM
same,TGI,[9],7.64 µM
same,GI50,[58],0.44 µM
same,TGI,[58],12.5 µM and 2.63 µM
same,GI50,[10],0.302 µM
same,TGI,[10],1.18 µM
same,GI50,[11],0.377 µM
same,TGI,[11],11.8 µM and 3.97 µM
same,GI50,[12],0.227 µM
same,GI50,[55],0.344 µM
same,TGI,[55],6.11 µM and 2.07 µM
same,TGI,[56],2.81 µM
same,GI50,[59],0.366 µM
same,GI50,[13],0.323 µM
same,TGI,[13],8.43 µM and 3.43 µM
same,GI50,[14],0.418 µM
same,TGI,[14],25.4 µM and 21.2 µM
same,GI50,[15],0.297 µM
same,TGI,[15],> 100 µM
same,GI50,[16],0.305 µM
same,TGI,[16],3.77 µM and 1.7 µM
same,GI50,[17],0.339 µM
same,TGI,[17],11.7 µM
same,GI50,[18],0.381 µM
same,GI50,[19],0.236 µM
same,TGI,[19],4.88 µM and 0.733 µM
same,GI50,[20],0.292 µM
same,TGI,[20],5.86 µM
same,GI50,[22],0.348 µM
same,TGI,[22],7.16 µM and 2.27 µM
same,TGI,[23],12.2 µM
same,GI50,[24],0.11 µM
same,TGI,[24],> 100 µM
same,GI50,[25],0.357 µM
same,TGI,[25],7.5 µM
same,GI50,[26],0.313 µM
same,TGI,[26],4.55 µM and 3.96 µM
same,GI50,[27],0.342 µM
same,TGI,[27],13 µM and 1.93 µM
same,GI50,[28],0.253 µM
same,TGI,[28],1.88 µM and 0.838 µM
same,GI50,[29],0.317 µM
same,TGI,[29],> 100 µM
same,GI50,[30],0.352 µM
same,TGI,[30],> 33.5 µM
same,GI50,[31],0.342 µM
same,TGI,[31],> 100 µM
same,GI50,[32],0.338 µM
same,TGI,[32],26.7 µM and 13.5 µM
same,GI50,[33],0.371 µM
same,GI50,[34],0.316 µM
same,TGI,[34],7.37 µM and 11.3 µM
same,TGI,[35],0.56 µM
same,GI50,[36],0.272 µM
same,TGI,[36],1.24 µM
same,GI50,[37],0.359 µM
same,TGI,[37],39 µM and > 100 µM
same,TGI,[38],0.79 µM
same,GI50,[39],0.335 µM
same,TGI,[39],15.8 µM and 5.1 µM
same,GI50,[40],0.267 µM
same,TGI,[40],0.702 µM
same,GI50,[41],0.483 µM
same,TGI,[41],51.2 µM and 14.9 µM
same,GI50,[42],0.216 µM
same,TGI,[42],4.53 µM and 0.506 µM
same,GI50,[44],0.322 µM
same,TGI,[44],9.42 µM and 6.72 µM
same,GI50,[45],0.376 µM
same,TGI,[45],54 µM and > 100 µM
same,GI50,[46],0.204 µM
same,TGI,[46],0.92 µM
same,GI50,[47],0.232 µM
same,TGI,[47],> 100 µM
same,GI50,[48],0.366 µM
same,TGI,[48],23.7 µM and 3.56 µM
same,GI50,[57],0.278 µM
same,GI50,[49],0.315 µM
same,TGI,[49],11 µM and > 100 µM
same,GI50,[50],0.358 µM
same,TGI,[50],> 100 µM
same,GI50,[51],0.312 µM
same,TGI,[51],1.63 µM
same,GI50,[52],0.338 µM
same,TGI,[52],5.67 µM and 1.59 µM
same,GI50,[53],0.245 µM
same,TGI,[53],6.63 µM and 0.916 µM
